Experimental data published in PMC3660367, “MARCKS Protein Is Phosphorylated and Regulates Calcium Mobilization during Human Acrosomal Exocytosis” (PLoS ONE, 2013).

Tests used:
[1] = tested on: phosphorylated MARCKS in human sperm; assay: Phosphorylated MARCKS level in stimulated sperm by Western blot (anti-phospho-MARCKS); type: cell-based; conditions: non-permeabilized capacitated sperm; 100 µM 2-APB 15 min, then 20 min 10 µM A23187, 200 nM PMA or 15 µM progesterone; normalized against β-tubulin; three experiments
Description: To examine the presence of MARCKS and phosphorylated MARCKS, the fraction of motile sperm capacitated for 2–3 h in BSA supplemented-HTF medium was used. After removing the HTF by washing cells twice with cold PBS, sperm pellets were resuspended in sample buffer (2% SDS, 10% glycerol, and 62.5 mM Tris-HCl pH 6.8) without disulfide reducing agents. Proteins were extracted by heating three times to 95°C for 4 min each. Extracts were centrifuged (12,000×g) for 10 min, and the supernatants were adjusted to 5% β-mercaptoethanol. Protein were resolved on 10% polyacrylamide gels according to [23], and transferred to PVDF membranes (Millipore). Non-specific reactivity was blocked by incubation for 1 h at room temperature (RT) with 5% skim milk dissolved in tris-buffered saline with 0.1% Tween-20 (T-TBS: 50 mM Tris-HCl pH 7.4, 150 mM NaCl, 0.1% Tween-20). Blots were incubated with primary anti-MARCKS antibody from Abcam (0.26 µg/ml), anti-MARCKS N-19 from Santa Cruz (0.13 µg/ml), or anti-phospho-MARCKS (0.06 µg/ml), in blocking solution overnight at 4°C. Biotinylated, goat anti-mouse-IgG (0.076 µg/ml), biotinylated, rabbit anti-goat-IgG (0.4 µg/ml) or biotinylated, goat anti-rabbit-IgG (0.076 µg/ml) were used as secondary antibodies during 60 min incubations at RT. Blots were then incubated with peroxidase-conjugated streptavidin (0.17 µg/ml) during 60 min incubations at RT. Excess first and second antibodies, and peroxidase-conjugated streptavidin were removed by washing five times for 10 min each in T-TBS. For loading control blots were reprobed with anti-β-tubulin. […]
Figure 5 Assessing MARCKS function on acrosomal exocytosis in non-permeabilized sperm. […] The increase in fluorescence is expressed as (F/F0)-1 ((maximum fluorescence intensity/initial fluorescence)-1) versus time in seconds. […] (D) Quantification of three independent experiments. […] Phosphorylated MARCKS was detected by Western blot assay using an anti-phospho-MARCKS antibody. […]

[2] = tested on: acrosomal exocytosis in permeabilized human sperm; assay: Acrosomal exocytosis assay in SLO-permeabilized human sperm (FITC-PSA lectin staining); type: cell-based; conditions: 1 µM MARCKS ED 15 min, then 50 µM PIP2 or 5 µM adenophostin, then 10 µM free Ca2+ or 200 nM PMA
Description: Acrosomal exocytosis assays were performed as previously described. Briefly, human semen obtained from normal healthy donors was allowed to liquefy for 30-60 min at 37°C. We used a swim-up protocol to isolate highly motile sperm under capacitating conditions in Human Tubal Fluid media (HTF, as formulated by Irvine Scientific, Santa Ana, CA) supplemented with 0.5% bovine serum albumin (BSA) for 1 h at 37°C in an atmosphere of 5% CO2/95% air. Sperm concentrations were adjusted to 5–10×10^6 cells/ml and incubated for at least 2 h under capacitating conditions. We have shown previously that human sperm incubated under these conditions are responsive to progesterone. […] Acrosomal status was evaluated by staining with FITC-coupled Pisum sativum agglutinin (FITC-PSA) according to [21]. At least 200 cells were scored using a Nikon Optiphot II microscope equipped with epifluorescence optics. […] For each experiment, acrosomal exocytosis indexes were calculated by subtracting the number of reacted spermatozoa in the negative control (range 10%–30%) from all values, and expressing the resulting values as a percentage of the acrosome exocytosis observed in the positive control (range 25%–40%). […] Data were evaluated using one-way ANOVA and post hoc tests (Dunnett's test or confident intervals). […]

Row | Molecule | increase of phosphorylated MARCKS [1] [%] | rescue of MARCKS ED inhibition of acrosomal exocytosis [2]
1 | CCCCCCCCCCCCCC(=O)O[C@@H]1[C@@H](C)[C@@]2(O)[C@@H](C=C(CO)C[C@]3(O)C(=O)C(C)=C[C@@H]23)[C@@H]2C(C)(C)[C@]12OC(C)=O [PMA, phorbol 12-myristate 13-acetate] | 60 | –
2 | CC(=O)[C@H]1CC[C@H]2[C@@H]3CCC4=CC(=O)CC[C@]4(C)[C@H]3CC[C@]12C [progesterone] | 40 | –
3 | Phosphatidylinositol 4, 5-bisphosphate [PIP2] | – | able to recover the MARCKS ED inhibition
4 | CNc1ccc2oc(C[C@H]3O[C@@]4(CC[C@H]3C)O[C@H]([C@H](C)C(=O)c3ccc[nH]3)[C@H](C)C[C@H]4C)nc2c1C(=O)O [A23187] | 50 | –
5 | Nc1ncnc2c1ncn2[C@@H]1O[C@H](CO)[C@@H](O[C@H]2O[C@H](CO)[C@@H](OP(=O)(O)O)[C@H](OP(=O)(O)O)[C@H]2O)[C@H]1OP(=O)(O)O [adenophostin, Adenophostin A] | – | rescued exocytosis impaired by MARCKS ED
